In patent US8168651B2, “Protein kinase modulators” (Cylene Pharmaceuticals, Inc., priority 2008, dated 2012):
Like-named read-outs stand apart in the source and are kept apart here. Values belong to the compound of their own block, whether it stands above or below them.

What was measured:
recombinant human PIM1 = recombinant human PIM1 (Homo sapiens (Human), UniProt P11309); assay: PIM-1 kinase activity in cell-free in vitro assay; assay type: biochemical; conditions: for inhibition at 0.5 µM: read-out: PIM-1: % inh 500 nM
Sequence of recombinant human PIM1 (P11309 whole entry): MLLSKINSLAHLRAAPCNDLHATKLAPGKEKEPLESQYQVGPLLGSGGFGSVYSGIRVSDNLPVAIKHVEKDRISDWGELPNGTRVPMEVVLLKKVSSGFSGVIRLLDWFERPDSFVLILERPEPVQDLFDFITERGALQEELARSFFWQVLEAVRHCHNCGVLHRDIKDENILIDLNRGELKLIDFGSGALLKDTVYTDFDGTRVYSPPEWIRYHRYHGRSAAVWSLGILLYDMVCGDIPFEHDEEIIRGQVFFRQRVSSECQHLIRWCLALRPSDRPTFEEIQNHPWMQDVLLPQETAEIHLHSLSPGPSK

[1] = tested on: HCT-116 human colorectal carcinoma cells; assay: Cell-proliferation assay using Alamar Blue dye; assay type: cell-based; conditions: Homo sapiens;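 note: cells exposed to compound for about 4 days, then Alamar Blue added and dye fluorescence read after about 4 h, compared with medium-only control wells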
[2] = HCT-116, read-out: HCT-116 (uM), cell proliferation modulatory activity, HCT-116, second column
[3] = HCT-116, read-out: HCT-116 (uM), cell proliferation modulatory activity, HCT-116, first column
[4] = HCT-116, HCT-116, second column, read-out: HCT-116 (uM), cell proliferation modulatory activity
[5] = 500 nM compound, cell-free assay
[6] = HCT-116, read-out: HCT-116 (uM), cell proliferation modulatory activity, HCT-116, second HCT-116 column (c8)
[7] = HCT-116, HCT-116, first column, read-out: HCT-116 (uM), cell proliferation modulatory activity
[8] = HCT-116, HCT-116, second HCT-116 column (c8), read-out: HCT-116 (uM), cell proliferation modulatory activity

SMILES: O=C(O)c1cc(F)cc(Nc2nc3cc(C(=O)O)ccc3c3sccc23)c1
inhibition at 0.5 µM (recombinant human PIM1; 500 nM compound, cell-free): 51%
IC50 (recombinant human PIM1; cell-free): 0.521 µM
IC50 [1, 2]: > 10 µM

SMILES: O=C(O)c1ccc2c(c1)nc(Nc1cccc(F)c1F)c1ccsc12
inhibition at 0.5 µM (recombinant human PIM1; 500 nM compound, cell-free): 72.9%
IC50 (recombinant human PIM1; cell-free): 0.855 µM
IC50 [1, 2]: > 10 µM

SMILES: O=c1[nH]c2cc(-c3nnn[nH]3)ccc2c2cnccc12 [drawing 1444]
inhibition at 0.5 µM (recombinant human PIM1; 500 nM compound, cell-free): 3.3%
IC50 [1, 4]: 15 µM

SMILES: O=C(O)c1ccc2c(c1)nc(Nc1ccc(F)cc1)c1ccsc12
inhibition at 0.5 µM (recombinant human PIM1; 500 nM compound, cell-free): 66.7%
IC50 (recombinant human PIM1; cell-free): 0.32 µM
IC50 [1, 3]: 10 µM

SMILES: O=C(O)c1ccc2c(c1)nc(Nc1ccc(F)cc1F)c1ccsc12
inhibition at 0.5 µM (recombinant human PIM1; 500 nM compound, cell-free): 67.2%
IC50 (recombinant human PIM1; cell-free): 0.362 µM
IC50 [1, 3]: 10 µM

SMILES: O=C(O)c1ccc2c(c1)nc(Nc1cc(F)ccc1F)c1ccsc12
inhibition at 0.5 µM (recombinant human PIM1; 500 nM compound, cell-free): 67.1%
IC50 (recombinant human PIM1; cell-free): 0.308 µM
IC50 [1, 2]: > 10 µM

SMILES: N#Cc1ccc2c(c1)nc(Nc1ccccc1)c1ccccc12
inhibition at 0.5 µM (recombinant human PIM1; 500 nM compound, cell-free): -65.4%
IC50 [1, 7]: 10 µM

SMILES: O=C(O)c1ccc2c(c1)nc(NCc1ccccc1)c1nc(NC3CC3)ncc12 [drawing 1626]
inhibition at 0.5 µM (recombinant human PIM1; [5]): 25.3%
IC50 [1, 6]: > 10 µM

SMILES: COc1ccc(Nc2nc3cc(C(=O)O)ccc3c3sccc23)cc1Cl
inhibition at 0.5 µM (recombinant human PIM1; 500 nM compound, cell-free): -2.65%
IC50 [1, 3]: 10 µM

SMILES: O=C(O)c1ccc2c(c1)nc(Nc1ccc(N3CCOCC3)cc1)c1ccsc12
inhibition at 0.5 µM (recombinant human PIM1): 1.17%
IC50 [1, 3]: 10 µM

SMILES: FC(F)(F)c1cc(Nc2nc3cc(-c4nnn[nH]4)ccc3c3sccc23)ccc1Cl
inhibition at 0.5 µM (recombinant human PIM1; 500 nM compound, cell-free): -46.4%
IC50 [1, 4]: > 10 µM

SMILES: COc1ccc(Nc2nc3cc(C(=O)O)ccc3c3sccc23)c(OC)c1
inhibition at 0.5 µM (recombinant human PIM1; 500 nM compound, cell-free): 3.88%
IC50 [1, 3]: 10 µM

SMILES: COC(=O)c1ccc2c(c1)nc(Nc1ccccc1)c1ccsc12
inhibition at 0.5 µM (recombinant human PIM1; 500 nM compound, cell-free): 2.59%
IC50 [1, 7]: 10 µM

SMILES: CS(=O)(=O)NC(=O)c1ccc2c(c1)nc(Nc1ccccc1)c1ccsc12
inhibition at 0.5 µM (recombinant human PIM1; 500 nM compound, cell-free): -15.7%
IC50 [1, 7]: 10 µM

SMILES: CN(C)CCNc1nc2cc(-c3nnn[nH]3)ccc2c2ccccc12
inhibition at 0.5 µM (recombinant human PIM1; 500 nM compound, cell-free): 56.9%
IC50 [1, 7]: 10 µM

Results, then the compound that gave them:

inhibition at 0.5 µM (recombinant human PIM1; 500 nM compound, cell-free): 57.9%
IC50 (recombinant human PIM1; cell-free): 0.553 µM
IC50 [1, 2]: > 10 µM
SMILES: O=C(O)c1ccc2c(c1)nc(Nc1cccc(Br)c1)c1ccsc12

inhibition at 0.5 µM (recombinant human PIM1; 500 nM compound, cell-free): 28.1%
IC50 [1, 3]: 10 µM
SMILES: O=C(O)c1ccc2c(c1)nc(Nc1ccccc1)c1ccccc12 [drawing 1394]

inhibition at 0.5 µM (recombinant human PIM1; 500 nM compound, cell-free): -3.22%
IC50 [1, 3]: 10 µM
SMILES: COc1ccc(OC)c(Nc2nc3cc(C(=O)O)ccc3c3sccc23)c1

inhibition at 0.5 µM (recombinant human PIM1; 500 nM compound, cell-free): 34.1%
IC50 [1, 4]: > 10 µM
SMILES: COc1cc(Nc2nc3cc(-c4nnn[nH]4)ccc3c3sccc23)ccc1C

inhibition at 0.5 µM (recombinant human PIM1; 500 nM compound, cell-free): 82.6%
IC50 (recombinant human PIM1; cell-free): 0.336 µM
IC50 [1, 2]: > 10 µM
SMILES: O=C(O)c1ccc2c(c1)nc(Nc1cc(F)cc(C(F)(F)F)c1)c1ccsc12

inhibition at 0.5 µM (recombinant human PIM1; 500 nM compound, cell-free): 26.7%
IC50 [1, 2]: > 10 µM
SMILES: c1cc2c(Nc3ccc4c(c3)OCCO4)nc3cc(-c4nnn[nH]4)ccc3c2s1

inhibition at 0.5 µM (recombinant human PIM1; [5]): 66.1%
IC50 [1, 6]: > 10 µM
SMILES: Cc1cc(Nc2ncc3c(n2)c(Nc2ccc(F)c(Cl)c2)nc2cc(C(=O)O)ccc23)[nH]n1 [drawing 1635]

inhibition at 0.5 µM (recombinant human PIM1; 500 nM compound, cell-free): 1.05%
IC50 [1, 7]: 10 µM
SMILES: O=C(O)c1ccc2c(c1)nc(OCCCO)c1ccccc12 [drawing 1388]

inhibition at 0.5 µM (recombinant human PIM1; [5]): 12.5%
IC50 [1, 8]: > 10 µM
SMILES: COC(=O)c1ccc2c(c1)nc(Nc1ccccc1C)c1nc(SC)ncc12

inhibition at 0.5 µM (recombinant human PIM1; 500 nM compound, cell-free): 21.7%
IC50 [1, 2]: > 10 µM
SMILES: NS(=O)(=O)c1cccc(Nc2nc3cc(C(=O)O)ccc3c3sccc23)c1

inhibition at 0.5 µM (recombinant human PIM1; 500 nM compound, cell-free): 55.8%
IC50 (recombinant human PIM1; cell-free): 0.465 µM
IC50 [1, 2]: 15 µM
SMILES: COc1cc(Nc2nc3cc(-c4nnn[nH]4)ccc3c3sccc23)cc(OC)c1

inhibition at 0.5 µM (recombinant human PIM1; 500 nM compound, cell-free): -17.5%
IC50 [1, 7]: 10 µM
SMILES: O=C(O)CNc1nc2ccccc2c2ccccc12

inhibition at 0.5 µM (recombinant human PIM1; 500 nM compound, cell-free): -30%
IC50 [1, 7]: 10 µM
SMILES: COC(=O)c1ccc2c(c1)nc(Cl)c1ccsc12 [drawing 1375]

inhibition at 0.5 µM (recombinant human PIM1; 500 nM compound, cell-free): 48.4%
IC50 [1, 2]: > 10 µM
SMILES: CC(=O)N1CCN(C(=O)c2cccc(Nc3nc4cc(-c5nnn[nH]5)ccc4c4sccc34)c2)CC1

inhibition at 0.5 µM (recombinant human PIM1; 500 nM compound, cell-free): -24.2%
IC50 [1, 7]: 2.3 µM
SMILES: CN(C)CCNc1nc2ccccc2c2sccc12 [drawing 1400]

inhibition at 0.5 µM (recombinant human PIM1; 500 nM compound, cell-free): -10%
IC50 [1, 3]: 10 µM
SMILES: O=C(O)c1ccc2c(c1)nc(NCCN1CCOCC1)c1ccsc12

inhibition at 0.5 µM (recombinant human PIM1; 500 nM compound, cell-free): 24%
IC50 [1, 2]: > 10 µM
SMILES: O=C(O)CNC(=O)c1cccc(Nc2nc3cc(C(=O)O)ccc3c3sccc23)c1

inhibition at 0.5 µM (recombinant human PIM1; 500 nM compound, cell-free): -22.3%
IC50 [1, 7]: 10 µM
SMILES: N#Cc1ccc2c(c1)nc(Nc1ccccc1)c1ccsc12 [drawing 1431]

inhibition at 0.5 µM (recombinant human PIM1; [5]): -23.8%
IC50 [1, 8]: > 10 µM
SMILES: N#Cc1ccc2c(c1)nc(NCCN1CCOCC1)c1ccsc12

inhibition at 0.5 µM (recombinant human PIM1; 500 nM compound, cell-free): -9.95%
IC50 [1, 3]: 10 µM
SMILES: O=C(O)c1ccc2c(c1)nc(N1CCc3ccccc31)c1ccsc12

inhibition at 0.5 µM (recombinant human PIM1; 500 nM compound, cell-free): -34.7%
IC50 [1, 3]: 10 µM
SMILES: O=C(O)c1ccc2c(c1)nc(OCCCO)c1ccsc12

inhibition at 0.5 µM (recombinant human PIM1; 500 nM compound, cell-free): 80.9%
IC50 (recombinant human PIM1; cell-free): 0.536 µM
IC50 [1, 2]: > 10 µM
SMILES: O=C(O)c1ccc2c(c1)nc(NCCc1ccccc1)c1ccncc12 [drawing 1511]
